In US20240101599A1, “PEPTIDE, CELL GROWTH PROMOTER, PROTEIN PRODUCTION PROMOTER, CULTURE MEDIUM, CELL GROWTH METHOD USING PEPTIDE, AND PROTEIN PRODUCTION METHOD USING PEPTIDE” (Maruhachi Muramatsu, Inc., priority 2020, published 2024):

Assays:
CHO-K1 [1] = assay: Relationship between concentration of each peptide solution and viable cell count (absorbance); assay type: cell-based; conditions: for Absorbance (450 nm): 5 days, MEMα without FBS, n = 3 average, 0 mM = 0.0000; for cell growth promotion, order of the peptides: in words, promoted in the order GEK, DGP, AGK, GPP, GGP, AEK, AGG, ASN, EGK (strongest first)
Experimental: Peptides having the sequences of Gly-Glu-Lys (GEK), Asp-Gly-Pro (DGP), Ala-Gly-Lys (AGK), Gly-Pro-Pro (GPP), Gly-Gly-Pro (GGP), Ala-Glu-Lys (AEK), Ala-Gly-Gly (AGG), Ala-Ser-Asn (ASN), and Glu-Gly-Lys (EGK), and Gly-Gly-Gly (GGG) are synthesized to prepare each of peptide solutions at 10-fold concentrations shown in Tables 1 to 10.
A cell suspension prepared such that CHO-K1 (RI KEN BioResource Research Center, cell number: RCB2330) was at 3×10^4 cells/mL was seeded in a 96-well plate at 100 μL/well and cultured in an incubator at 37° C. and 5% CO2 for 24 hours. As a culture medium, an MEMα culture medium (Gibco) containing 10% FBS was used.
After removing the culture medium from each well and washing with the MEMα culture medium (100 μL), 90 μL of a new MEMa culture medium was dispensed into each well, and each peptide solution (10 μL) was added (total 100 μL/well) such that final concentrations were within a range of 0 mM to 5 mM as shown in Tables 1 to 10 to perform culture for 5 days. A similar culture test was performed using a system containing neither peptide nor FBS as a comparative sample. After culturing for 5 days, 10 μL/well of a viable cell count measurement reagent SF (Nacalai Tesque Inc.) was added, and a color reaction was carried out in an incubator at 37° C. and 5% CO2 for 2 hours to measure an absorbance at 450 nm with a plate reader. A reference wavelength was 630 nm. It was confirmed that the absorbance at 450 nm correlated with the cell number.
The above preparation, culture, and measurement were performed with n=3, and Tables 1 to 10 and FIGS. 1 to 10 show the absorbance at the concentration of each peptide solution.

CHO-K1 [2] = assay: Cell growth test of each peptide on coating agent for 5 days; assay type: cell-based; set-up: Viability, 1 / Viability, 2 / Viability, 3 / Viability, Mean: unit not given here; conditions: 2.0 mM Ala-Gly-Lys, 2.1 mM Gly-Glu-Lys, 2.5 mM Gly-Gly-Gly, poly-L-lysine coating
Experimental: Peptides having the sequences of Asp-Gly-Pro (DGP), Ala-Gly-Lys (AGK), Gly-Glu-Lys (GEK), and Gly-Gly-Gly (GGG) were synthesized to prepare each peptide solution such that the concentration was a concentration at which the cell number increased the most within a range of 0 mM to 5 mM. In other words, Asp-Gly-Pro (DGP) was adjusted to 22 mM, Ala-Gly-Lys (AGK) was adjusted to 20 mM, Gly-Glu-Lys (GEK) was adjusted to 21 mM, and Gly-Gly-Gly (GGG) was adjusted to 25 mM, and an amount of 1/10 of the total culture medium volume was added to each well immediately before the cell culture test such that final concentrations were 2.2 mM, 2.0 mM, 2.1 mM, and 2.5 mM, respectively. Poly-L-lysine (Peptide Institute, Inc., Poly-L-Lysine Hydrochloride, code: 3075) was prepared to 0.1 mg/mL, and 200 μL was dispensed into each well of a 24-well plate, which was left to stand in an incubator at 37° C. for 2 hours. After removing the residual liquid with an aspirator, rinsing was performed with distilled water, irradiation was performed with a UV lamp in a clean bench without a lid, and drying was performed overnight to sterilize. A cell suspension prepared such that CHO-K1 (RIKEN BioResource Research Center, cell number: RCB2330) was at 4×10^4 cells/mL was seeded in each well of a 24-well plate at 500 μL/well and cultured in an incubator at 37° C. and 5% CO2 for 24 hours. As a culture medium, an MEMα culture medium (Gibco) containing 10% FBS was used.
After removing the culture medium from each well and washing with the MEMα culture medium (500 μL), 450 μL of a new MEMα culture medium was dispensed into each well, and each peptide solution (50 μL) was added (total 500 μL/well) to perform culture for 5 days. The cells were recovered to count the cell number. A similar culture test was performed using a system containing neither peptide nor FBS as a comparative sample.
The culture medium in each well was recovered in a 1.5 mL tube to be rinsed with 200 μL of MEMα, and the rinsed liquid was also recovered in the same 1.5 mL tube. Thereafter, 100 μL of trypsin was added and incubated for 3 minutes. After rinsing with 300 μL of MEMα containing 10% FBS, the rinsed liquid was also recovered in the same 1.5 mL tube. After rinsing again with 200 μL of MEMα containing 10% FBS, the rinsed liquid was also recovered in the same 1.5 mL tube.
A centrifugation operation was performed on the cells recovered in the 1.5 mL tube. The centrifugation conditions were 1,000 rpm, 10 minutes, and 4° C.
The supernatant was removed, and 300 μL of Cold PBS (phosphate buffered saline) was added to perform a centrifugation operation under the same conditions. The present operation was repeated twice.
Suspension was carried out with 100 μL of Binding Buffer, and 2 μL of propidium iodide (PI) was added and stirred in the tube to cause a reaction for 15 minutes at room temperature and with light shielding. Thereafter, the viable cell count and the cell viability were measured with a flow cytometer.
The above preparation, culture, and measurement were performed with n=3. Table 15 and FIG. 15 show the viable cell count in each peptide solution, and Table 16 and FIG. 16 show the cell viability in each peptide solution.

[3] = replicate 1, 2.2 mM Asp-Gly-Pro
[4] = replicate 2, 2.2 mM Asp-Gly-Pro
[5] = replicate 3, 2.2 mM Asp-Gly-Pro

## Gly-Gly-Pro [GGP]
CHO-K1 [1]; 0.135 mM peptide
  Absorbance (450 nm): 0.0420
CHO-K1 [1]; 0.270 mM peptide
  Absorbance (450 nm): 0.0966
CHO-K1 [1]; 0.539 mM peptide
  Absorbance (450 nm): 0.2946
CHO-K1 [1]; 1.08 mM peptide
  Absorbance (450 nm): 0.4653
CHO-K1 [1]; 2.16 mM peptide
  Absorbance (450 nm): 0.5483
CHO-K1 [1]; 4.31 mM peptide
  Absorbance (450 nm): 0.3286
CHO-K1 [1]
  cell growth promotion, order of the peptides: cell growth was promoted

## Gly-Gly-Gly [GGG, reference compound]
CHO-K1 [1]; 0.156 mM peptide
  Absorbance (450 nm): 0.0067
CHO-K1 [1]; 0.313 mM peptide
  Absorbance (450 nm): 0.0037
CHO-K1 [1]; 0.625 mM peptide
  Absorbance (450 nm): 0.0027
CHO-K1 [1]; 1.25 mM peptide
  Absorbance (450 nm): −0.0013
CHO-K1 [1]; 2.5 mM peptide
  Absorbance (450 nm): 0.0013
CHO-K1 [1]; 5 mM peptide
  Absorbance (450 nm): 0.0083
CHO-K1 [2]; mean n=3, 2.2 mM Asp-Gly-Pro
  Cells cell count, Mean: 0.0502 ×10^4
  Viability, Mean: 1.7
CHO-K1 [2]; [3]
  Cells cell count, 1: 0.1360 ×10^4
  Viability, 1: 4.45
CHO-K1 [2]; [4]
  Cells cell count, 2: 0.0080 ×10^4
  Viability, 2: 0.31
CHO-K1 [2]; [5]
  Cells cell count, 3: 0.0065 ×10^4
  Viability, 3: 0.21

## Glu-Gly-Lys [EGK]
CHO-K1 [1]; 0.128 mM peptide
  Absorbance (450 nm): 0.0383
CHO-K1 [1]; 0.257 mM peptide
  Absorbance (450 nm): 0.1123
CHO-K1 [1]; 0.512 mM peptide
  Absorbance (450 nm): 0.0893
CHO-K1 [1]; 1.02 mM peptide
  Absorbance (450 nm): 0.1503
CHO-K1 [1]; 2.05 mM peptide
  Absorbance (450 nm): 0.1876
CHO-K1 [1]; 4.10 mM peptide
  Absorbance (450 nm): 0.2373
CHO-K1 [1]
  cell growth promotion, order of the peptides: cell growth was promoted

## Ala-Ser-Asn
CHO-K1 [1]; 0.138 mM peptide
  Absorbance (450 nm): −0.0527
CHO-K1 [1]; 0.276 mM peptide
  Absorbance (450 nm): −0.0250
CHO-K1 [1]; 0.552 mM peptide
  Absorbance (450 nm): −0.0214
CHO-K1 [1]; 1.10 mM peptide
  Absorbance (450 nm): −0.0224
CHO-K1 [1]; 2.21 mM peptide
  Absorbance (450 nm): 0.1170
CHO-K1 [1]; 4.42 mM peptide
  Absorbance (450 nm): 0.3320
CHO-K1 [1]
  cell growth promotion, order of the peptides: cell growth was promoted

## Ala-Glu-Lys [AEK]
CHO-K1 [1]; 0.129 mM peptide
  Absorbance (450 nm): 0.0350
CHO-K1 [1]; 0.259 mM peptide
  Absorbance (450 nm): 0.1143
CHO-K1 [1]; 0.516 mM peptide
  Absorbance (450 nm): 0.1927
CHO-K1 [1]; 1.03 mM peptide
  Absorbance (450 nm): 0.2337
CHO-K1 [1]; 2.06 mM peptide
  Absorbance (450 nm): 0.5013
CHO-K1 [1]; 4.13 mM peptide
  Absorbance (450 nm): 0.4857
CHO-K1 [1]
  cell growth promotion, order of the peptides: cell growth was promoted

## Ala-Gly-Gly [AGG]
CHO-K1 [1]; 0.156 mM peptide
  Absorbance (450 nm): 0.0277
CHO-K1 [1]; 0.313 mM peptide
  Absorbance (450 nm): 0.0274
CHO-K1 [1]; 0.625 mM peptide
  Absorbance (450 nm): 0.0967
CHO-K1 [1]; 1.25 mM peptide
  Absorbance (450 nm): 0.2064
CHO-K1 [1]; 2.5 mM peptide
  Absorbance (450 nm): 0.3357
CHO-K1 [1]; 5 mM peptide
  Absorbance (450 nm): 0.2080
CHO-K1 [1]
  cell growth promotion, order of the peptides: cell growth was promoted
